From patent US20190263796A1, “LIM KINASE INHIBITORS, PHARMACEUTICAL COMPOSITION AND METHOD OF USE IN LIMK-MEDIATED DISEASES” (CELLIPSE, priority 2016, published 2019) come the findings set out here.

The structures appear in SMILES notation.

One test has as its system P-MEK/Total MEK. Description: Western blot MEK1 phosphorylation, Kasumi-1. In kind it is cell-based. The settings on record: Kasumi-1 cells. How it is done: Cells were maintained at 37° C. with 5% CO2.
In a 6 wells plate (Falcon 353046), 2·10^6 cells in 1.5 mL medium are treated for 2 h with compounds. Cells are then collected and cell lysis is performed at 4° C. using RIPA buffer supplemented with protease inhibitors cocktail (Sigma-Aldrich P8340) and phosphatase inhibitors cocktail (Sigma-Aldrich P5726). Following centrifugation 30 min 15000 g 4° C., supernatants are mixed with Laemmli buffer and denaturation is performed by heating 5 min 95° C. 10 μL of samples are subjected to electrophoresis on 15% SDS-PAGE. After electro-transfer (Mini Transblot, Bio-Rad), the PVDF membrane (Merck-Millipore Immobilon P IPVH00010) is blocked with Tris Buffered Saline, pH 7.4 (TBS) with 0.1% Tween 20 and 5% BSA for 1 h at room temperature under agitation. The membrane was rinsed 3 times 10 min at room temperature under agitation with TBS, 0.1% Tween-20 (TBST) and then 1 h at room temperature with anti-phospho-Ser218/222-MEK1 (Merck-Millipore 07-461, 1/1000 dilution) antibody or anti-MEK1 (Merck-Millipore 07-641, 1/1000 dilution) diluted in TBS, 0.1% Tween 20 and 1% BSA. The membrane is then rinsed 3 times 10 min RT under agitation in TBST and incubated for 1 h with anti-rabbit secondary antibody, horseradish peroxidase conjugated (Jackson Immunoresearch #711-036-152) under agitation at room temperature. After three washes 10 min at room temperature in TBST, the detection of total or phosphorylated cofilin was performed using chemiluminescence kit ECL™ Plus (GE Healthcare RPN2132). For each concentration of compound, ratio between phosphorylated cofilin and total cofilin is determined. This ratio is then expressed as percentage of control ratio (i.e., ratio from DMSO treated cells). IC50 P-MEK/Total MEK is then determined.
Selectivity ratios are calculated by dividing the IC50 P-MEK/Total MEK value (μM) by the IC50 Phospho-Ser3-Cofilin/Total Cofilin value (μM).

In test [1] the test system is Phospho-Ser3-Cofilin/Total Cofilin. Description: Western blot of cellular cofilin phosphorylation status, MV4-11 (II.4). In kind it is cell-based. The settings on record: Homo sapiens; MV4-11 cells; 2 h treatment. How it is done: MV4-11 cell line was originally purchased from the American Type Culture Collection (ATCC). MV4-11 cells are cultured in RPMI 1640 10% (v/v) FBS supplemented with 100 U/mL^−1 penicillin, 0.1 mg·mL^−1 streptomycin (PAN Biotech P06-07100) and 2 mM Glutamine (Sigma-Aldrich 59202C). Cells were maintained at 37° C. with 5% CO2.
In a 6 wells plate (Falcon 353046), 2·10^6 cells in 1.5 mL medium are treated for 2 h with compounds. Cells are then collected and cell lysis is performed at 4° C. using RIPA buffer supplemented with protease inhibitors cocktail (Sigma-Aldrich P8340) and phosphatase inhibitors cocktail (Sigma-Aldrich P5726). Following centrifugation 30 min 15000 g 4° C., supernatants are mixed with Laemmli buffer and denaturation is performed by heating 5 min 95° C. 10 μL of samples are subjected to electrophoresis on 15% SDS-PAGE. After electro-transfer (Mini Transblot, Bio-Rad), the PVDF membrane (Merck-Millipore Immobilon P IPVH00010) is blocked with Tris Buffered Saline, pH 7.4 (TBS) with 0.1% Tween 20 and 5% BSA for 1 h RT under agitation. The membrane was rinsed 3 times 10 min RT under agitation with TBS, 0.1% Tween-20 (TBST) and then 1 h RT with anti-phospho-Ser3-cofilin (Cell Signaling Technology #3313, 1/1000 dilution) antibody or anti-cofilin (Cell Signaling Technology #3312, 1/1000 dilution) diluted in TBS, 0.1% Tween 20 and 1% BSA. The membrane is then rinsed 3 times 10 min RT under agitation in TBST and incubated for 1 hour with anti-rabbit secondary antibody, horseradish peroxidase conjugated (Jackson Immunoresearch #711-036-152) under agitation at room temperature. After three washes 10 min RT in TBST, the detection of total or phosphorylated cofilin was performed using chemiluminescence kit ECL™ Plus (GE Healthcare RPN2132). For each concentration of compound, ratio between phosphorylated cofilin and total cofilin is determined. This ratio is then expressed as percentage of control ratio (i.e ratio from DMSO treated cells). IC50 is then determined.
(In western blotting, separated proteins are transferred to a membrane and probed.)

Another test concerns the target T1, Abl(h) (Homo sapiens, UniProt P00519).
T1 construct: purchased Merck-Millipore (KinaseProfiler panel service)
Description: KinaseProfiler panel: Abl(h). In kind it is biochemical. The note with it: residual activity, 5 μM inhibitor, Km ATP. The method, then:
(§1) Kinase selectivity was performed on a panel of 58 recombinant protein kinases. The assays were performed in the presence of 5 μM inhibitor at the respective Km ATP for each kinase, using the KinaseProfiler panel service (Merck-Millipore). Residual activity measured in the presence of […] inhibitor is expressed as the percent of activity determined in the absence of inhibitor.

The target in the next test is T2, Aurora-A(h) (Homo sapiens, UniProt O14965).
T2 construct: purchased Merck-Millipore (KinaseProfiler panel service)
Description: KinaseProfiler panel: Aurora-A(h). Type of test: biochemical. The note with it: residual activity, 5 μM inhibitor, Km ATP. How it is done: as §1

Another test deals with T3, BTK(h) (Homo sapiens, UniProt Q06187).
T3 construct: purchased Merck-Millipore (KinaseProfiler panel service)
The test can be described thus: KinaseProfiler panel: BTK(h). The note with it: residual activity, 5 μM inhibitor, Km ATP. In kind it is biochemical. How it is done: as §1

In the next test the target is T4, cKit(D816V)(h) (Homo sapiens, UniProt P10721, D816V).
T4 construct: purchased Merck-Millipore (KinaseProfiler panel service)
Description: KinaseProfiler panel: cKit(D816V)(h). Type of test: biochemical. The settings on record: residual activity, 5 μM inhibitor, Km ATP. How it is done: as §1

In a further test the target is T5, GSK3β(h) (Homo sapiens, UniProt P49841).
T5 construct: purchased Merck-Millipore (KinaseProfiler panel service)
The test can be described thus: KinaseProfiler panel: GSK3β(h). In kind it is biochemical. The note with it: residual activity, 5 μM inhibitor, Km ATP. How it is done:
as §1

The next test deals with T6, JAK2(h) (Homo sapiens, UniProt O60674).
T6 construct: purchased Merck-Millipore (KinaseProfiler panel service)
Description: KinaseProfiler panel: JAK2(h). Type of test: biochemical. The settings on record: residual activity, 5 μM inhibitor, Km ATP. How it is done: as §1

In a further test the target is T7, KDR(h) (Homo sapiens, UniProt P35968).
T7 construct: purchased Merck-Millipore (KinaseProfiler panel service)
The test can be described thus: KinaseProfiler panel: KDR(h). The note with it: residual activity, 5 μM inhibitor, Km ATP. In kind it is biochemical. The method, then: as §1

The target in a further test is T8, MEK1(h) (Homo sapiens, UniProt Q02750).
T8 construct: purchased Merck-Millipore (KinaseProfiler panel service)
Description: KinaseProfiler panel: MEK1(h). The note with it: residual activity, 5 μM inhibitor, Km ATP. Type of test: biochemical. The method, then:
as §1

The next test has as its target T9, ROCK-I(h) (Homo sapiens, UniProt Q13464).
T9 construct: purchased Merck-Millipore (KinaseProfiler panel service)
The test can be described thus: KinaseProfiler panel: ROCK-I(h). Type of test: biochemical. The note with it: residual activity, 5 μM inhibitor, Km ATP. The method, then: as §1

A further test addresses T10, Src(1-530)(h) (Homo sapiens, UniProt P12931).
T10 construct: Src(1-530)(h); purchased Merck-Millipore (KinaseProfiler panel service)
Description: KinaseProfiler panel: Src(1-530)(h). The note with it: residual activity, 5 μM inhibitor, Km ATP. Type of test: biochemical. How it is done:
as §1

The next test concerns the target B-Raf(h) (Homo sapiens, UniProt P15056). The test can be described thus: KinaseProfiler panel: B-Raf(h). Type of test: biochemical. More on the design: purchased Merck-Millipore (KinaseProfiler panel service). The note with it: residual activity, 5 μM inhibitor, Km ATP. How it is done: as §1

T8 sequence (Q02750 whole entry): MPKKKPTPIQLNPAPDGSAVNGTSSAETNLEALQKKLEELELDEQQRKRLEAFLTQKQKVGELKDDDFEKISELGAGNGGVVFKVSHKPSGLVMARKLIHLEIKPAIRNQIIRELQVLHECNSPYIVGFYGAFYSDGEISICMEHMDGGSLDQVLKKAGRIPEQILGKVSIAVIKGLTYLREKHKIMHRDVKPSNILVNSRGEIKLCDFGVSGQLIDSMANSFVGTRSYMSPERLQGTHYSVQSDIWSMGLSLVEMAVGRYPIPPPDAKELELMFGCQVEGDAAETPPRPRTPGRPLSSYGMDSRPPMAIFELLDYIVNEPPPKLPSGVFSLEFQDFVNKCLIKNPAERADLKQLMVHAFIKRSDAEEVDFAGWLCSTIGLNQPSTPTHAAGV
T4 sequence (P10721 26-976 D816V): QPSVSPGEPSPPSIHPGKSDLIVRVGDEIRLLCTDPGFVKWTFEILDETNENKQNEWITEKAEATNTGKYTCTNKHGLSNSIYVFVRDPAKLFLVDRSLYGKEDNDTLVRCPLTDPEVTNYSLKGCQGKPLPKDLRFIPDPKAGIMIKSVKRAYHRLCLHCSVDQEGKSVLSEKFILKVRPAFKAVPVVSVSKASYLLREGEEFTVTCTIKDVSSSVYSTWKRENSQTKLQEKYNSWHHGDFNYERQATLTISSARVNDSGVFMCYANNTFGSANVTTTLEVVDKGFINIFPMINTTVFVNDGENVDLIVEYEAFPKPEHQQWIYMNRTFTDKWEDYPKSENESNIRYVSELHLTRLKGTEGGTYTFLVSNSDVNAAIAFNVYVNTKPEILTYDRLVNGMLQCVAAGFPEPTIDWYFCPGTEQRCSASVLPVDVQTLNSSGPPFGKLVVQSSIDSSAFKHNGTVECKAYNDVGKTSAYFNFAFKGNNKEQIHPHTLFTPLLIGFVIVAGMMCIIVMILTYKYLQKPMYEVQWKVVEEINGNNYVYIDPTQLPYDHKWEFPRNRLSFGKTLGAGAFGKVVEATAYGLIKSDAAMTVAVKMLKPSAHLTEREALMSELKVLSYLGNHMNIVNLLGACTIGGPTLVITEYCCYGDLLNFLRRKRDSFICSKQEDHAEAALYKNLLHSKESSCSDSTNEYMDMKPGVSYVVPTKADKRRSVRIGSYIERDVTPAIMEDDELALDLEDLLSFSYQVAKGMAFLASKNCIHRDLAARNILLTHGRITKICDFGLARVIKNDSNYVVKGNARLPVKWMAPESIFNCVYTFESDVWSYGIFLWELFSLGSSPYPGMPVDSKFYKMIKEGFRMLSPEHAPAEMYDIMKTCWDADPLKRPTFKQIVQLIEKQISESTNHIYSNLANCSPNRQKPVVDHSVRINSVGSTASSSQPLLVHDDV
Chain of B-Raf(h) (P15056 whole entry): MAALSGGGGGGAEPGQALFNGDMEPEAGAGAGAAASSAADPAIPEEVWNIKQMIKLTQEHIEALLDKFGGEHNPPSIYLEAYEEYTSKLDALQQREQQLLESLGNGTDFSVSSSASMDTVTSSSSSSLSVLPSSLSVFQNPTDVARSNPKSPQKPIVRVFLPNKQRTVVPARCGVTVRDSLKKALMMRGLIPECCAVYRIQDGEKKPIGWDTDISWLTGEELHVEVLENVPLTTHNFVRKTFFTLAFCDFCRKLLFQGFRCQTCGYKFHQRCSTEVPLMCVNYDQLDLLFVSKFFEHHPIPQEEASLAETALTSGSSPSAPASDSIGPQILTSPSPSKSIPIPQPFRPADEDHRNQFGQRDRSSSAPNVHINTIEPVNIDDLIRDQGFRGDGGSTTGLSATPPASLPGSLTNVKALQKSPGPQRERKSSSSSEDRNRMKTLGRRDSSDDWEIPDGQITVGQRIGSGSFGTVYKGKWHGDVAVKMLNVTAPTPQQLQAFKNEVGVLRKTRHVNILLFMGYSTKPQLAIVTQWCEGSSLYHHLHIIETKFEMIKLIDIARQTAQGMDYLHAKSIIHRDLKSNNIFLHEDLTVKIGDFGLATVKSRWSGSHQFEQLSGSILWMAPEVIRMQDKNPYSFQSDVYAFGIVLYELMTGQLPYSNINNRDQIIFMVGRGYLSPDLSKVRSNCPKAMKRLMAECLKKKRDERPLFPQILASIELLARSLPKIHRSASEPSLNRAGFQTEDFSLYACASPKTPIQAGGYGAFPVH
T2 sequence (O14965 whole entry): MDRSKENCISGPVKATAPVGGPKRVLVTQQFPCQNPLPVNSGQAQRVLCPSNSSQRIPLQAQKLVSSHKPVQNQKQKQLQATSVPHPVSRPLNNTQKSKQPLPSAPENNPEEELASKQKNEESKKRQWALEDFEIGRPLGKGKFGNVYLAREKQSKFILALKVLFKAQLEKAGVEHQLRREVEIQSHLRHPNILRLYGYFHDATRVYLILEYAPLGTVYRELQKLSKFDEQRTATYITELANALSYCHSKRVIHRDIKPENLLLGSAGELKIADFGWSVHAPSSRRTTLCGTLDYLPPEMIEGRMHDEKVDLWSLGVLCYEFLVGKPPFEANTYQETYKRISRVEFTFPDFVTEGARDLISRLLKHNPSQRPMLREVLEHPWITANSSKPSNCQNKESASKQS
T7 sequence (P35968 20-1356): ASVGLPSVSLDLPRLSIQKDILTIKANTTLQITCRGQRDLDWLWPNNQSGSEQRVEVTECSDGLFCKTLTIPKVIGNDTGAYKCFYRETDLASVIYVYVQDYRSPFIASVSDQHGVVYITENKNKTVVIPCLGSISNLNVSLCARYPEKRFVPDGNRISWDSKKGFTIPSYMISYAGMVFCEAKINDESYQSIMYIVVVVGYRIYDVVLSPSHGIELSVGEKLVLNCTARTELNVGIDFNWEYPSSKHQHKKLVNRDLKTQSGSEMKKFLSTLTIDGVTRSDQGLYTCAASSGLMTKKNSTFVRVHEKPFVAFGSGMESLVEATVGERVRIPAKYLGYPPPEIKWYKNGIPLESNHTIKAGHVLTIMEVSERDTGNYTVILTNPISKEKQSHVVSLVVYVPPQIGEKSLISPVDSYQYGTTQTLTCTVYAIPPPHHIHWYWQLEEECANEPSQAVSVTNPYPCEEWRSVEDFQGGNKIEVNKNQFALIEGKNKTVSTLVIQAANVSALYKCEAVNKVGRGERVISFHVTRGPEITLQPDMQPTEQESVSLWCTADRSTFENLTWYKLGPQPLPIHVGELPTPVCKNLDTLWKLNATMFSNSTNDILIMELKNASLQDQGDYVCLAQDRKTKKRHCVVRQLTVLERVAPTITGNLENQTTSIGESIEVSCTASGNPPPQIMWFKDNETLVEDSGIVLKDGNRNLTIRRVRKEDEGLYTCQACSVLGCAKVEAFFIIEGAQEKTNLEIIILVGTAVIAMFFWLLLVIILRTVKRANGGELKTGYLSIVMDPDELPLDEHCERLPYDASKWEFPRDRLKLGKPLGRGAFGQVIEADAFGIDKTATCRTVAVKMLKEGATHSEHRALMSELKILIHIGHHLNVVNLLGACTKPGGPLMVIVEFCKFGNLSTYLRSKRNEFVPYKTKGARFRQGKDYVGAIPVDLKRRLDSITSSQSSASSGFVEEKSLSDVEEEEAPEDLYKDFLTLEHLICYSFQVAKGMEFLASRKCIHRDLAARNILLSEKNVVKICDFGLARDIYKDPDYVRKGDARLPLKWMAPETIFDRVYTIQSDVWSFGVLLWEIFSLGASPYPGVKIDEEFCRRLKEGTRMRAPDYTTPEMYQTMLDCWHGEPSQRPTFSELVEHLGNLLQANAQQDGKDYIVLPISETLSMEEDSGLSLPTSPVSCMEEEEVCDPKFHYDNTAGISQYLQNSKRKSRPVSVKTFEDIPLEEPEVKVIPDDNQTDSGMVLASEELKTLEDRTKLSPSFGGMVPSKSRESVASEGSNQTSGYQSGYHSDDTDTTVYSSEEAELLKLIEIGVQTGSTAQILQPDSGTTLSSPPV
T5 sequence (P49841 whole entry): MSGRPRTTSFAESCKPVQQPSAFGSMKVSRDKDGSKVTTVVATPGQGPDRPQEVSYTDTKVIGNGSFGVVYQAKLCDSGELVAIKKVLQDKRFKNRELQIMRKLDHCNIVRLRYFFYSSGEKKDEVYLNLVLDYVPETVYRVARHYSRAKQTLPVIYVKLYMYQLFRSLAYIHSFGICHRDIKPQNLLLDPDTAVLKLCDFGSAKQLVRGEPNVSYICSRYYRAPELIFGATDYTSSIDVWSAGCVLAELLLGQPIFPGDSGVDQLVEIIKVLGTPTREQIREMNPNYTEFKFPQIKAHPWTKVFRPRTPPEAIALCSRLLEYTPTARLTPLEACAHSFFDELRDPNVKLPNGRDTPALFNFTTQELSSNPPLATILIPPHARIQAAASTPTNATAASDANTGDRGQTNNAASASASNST
T10 sequence (P12931 1-530): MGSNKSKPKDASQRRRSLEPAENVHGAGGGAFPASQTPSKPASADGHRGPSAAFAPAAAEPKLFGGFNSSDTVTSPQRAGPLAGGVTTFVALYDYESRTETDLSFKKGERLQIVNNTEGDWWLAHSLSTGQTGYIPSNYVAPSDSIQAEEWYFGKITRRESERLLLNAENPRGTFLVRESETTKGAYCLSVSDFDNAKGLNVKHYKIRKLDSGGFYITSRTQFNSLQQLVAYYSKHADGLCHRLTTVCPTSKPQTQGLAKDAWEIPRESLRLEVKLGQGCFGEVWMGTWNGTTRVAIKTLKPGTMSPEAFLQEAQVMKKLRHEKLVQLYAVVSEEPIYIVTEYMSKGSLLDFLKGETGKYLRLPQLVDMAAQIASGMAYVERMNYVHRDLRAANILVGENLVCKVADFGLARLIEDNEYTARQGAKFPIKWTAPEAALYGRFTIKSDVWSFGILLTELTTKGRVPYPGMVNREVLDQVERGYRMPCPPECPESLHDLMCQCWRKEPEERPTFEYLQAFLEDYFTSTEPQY

Turning to `O=S(=O)(Nc1cccc(-c2nc(CCO)sc2-c2ccnc(Nc3ccccc3)n2)c1F)c1c(F)cccc1F` [8 (Na)], the IC50 in the test with P-MEK/Total MEK (Homo sapiens, 2 h, read-out: IC50 P-MEK/Total MEK) was over 1000 nM. Moreover, in the test with P-MEK/Total MEK (IC50 P-MEK/Total MEK divided by IC50 Phospho-Ser3-Cofilin/Total Cofilin), the Selectivity ratio was 10.

`CC(C)(C)c1nc(-c2cccc(NS(=O)(=O)c3c(F)cccc3F)c2F)c(-c2ccnc(Nc3ccccc3)n2)s1` [Compound 1, N-(3-(2-(tert-butyl)-5-(2-(phenylamino)pyrimidin-4-yl)thiazol-4-yl)-2-fluorophenyl)-2,6-difluorobenzenesulfonamide]: the IC50 in [1] was under 200 nM. Moreover, the activity at 5 µM on Abl(h) was at least 50%; at Aurora-A(h), at least 50%; at BTK(h), 10 to 50%; at cKit(D816V)(h), at least 50%; at GSK3β(h), at least 50%; at JAK2(h), at least 50%. Besides, the activity at 5 µM is 10 to 50% on KDR(h); at least 50% on MEK1(h); at least 50% at ROCK-I(h); 3 to 10% on Src(1-530)(h); 3 to 10% at B-Raf(h).
